From US20060240400A1, “High-density cell array board, process for producing the same and method of using the same” (priority 2003, published 2006)

System: rat primary hepatic solid tumor cells
Assay: Chemical assay on high-density cell array substrate (cell morphology after microdispensed dichlorobenzene)
Type: cell-based
Conditions: after 10 minutes, 37° C., 0-4.5 mM in steps of 0.5 mM in 10 pl culture medium, single cells on substrates of Examples 1-5
Description: Poly-N-isopropylacrylamide, polyacrylamide and polydimethylsiloxane were used as cell adhesive polymer, hydrophilic polymer and highly hydrophobic polymer, respectively. These solutions were used for preparing each layer by the procedure described below. First, a solution of N-isopropylacrylamide monomer in isopropyl alcohol at the concentration shown in Table 1 was applied on a polystyrene base in an amount of 0.01 ml/cm^2 in order to prepare a cell adhesive polymer-coated domain. The coating was irradiated with electron beams at a dose of 0.25 MGy to coat the surface of the base with poly-N-isopropylacrylamide. After irradiation, the substrate was thoroughly washed with water and dried to give a substrate having a poly-N-isopropylacrylamide layer. Then, a solution of acrylamide monomer in isopropyl alcohol at the concentration shown in Table 1 was applied on the substrate in an amount of 0.01 ml/cm^2 in order to prepare a cell non-adhesive hydrophilic polymer-coated domain on the preceding layer. The coating was irradiated with electron beams at a dose similar to the value used in the method described above and then washed and dried to give a substrate having a polyacrylamide layer on the poly-N-isopropylacrylamide layer. […]

Substance: dichlorobenzene
- dichlorobenzene concentration in culture medium at which cells were morphologically altered: ≥ 2.5 mM
